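Step 1: Grow cells in 96-well plates. Step 2: Expose to compound for 48 hours at 5 concentrations. Step 3: Interpolate endpoints linearly; if unreached, use highest concentration. GI50 marks 50% less growth. The concentration for full growth arrest is given as TGI.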

This passage reports GI50 and TGI results from PubChem BioAssay (NCI).

Test systems include ACHN renal; SK-OV-3 ovarian; SN12C renal; HCC-2998 colon; HOP-92 NSCLC; NCI-H23 lung; BT-549 breast; COLO 205 colon; MCF7 breast; M14 melanoma.
Common to all, as to assay: NCI-60 cell line screen, 48 h

Turning to `N/C(=N/O)NOCCC(N)C(=O)O` (stereo not given), the GI50 in the assay with ACHN renal, in the assay on SK-OV-3 ovarian, in the assay with SN12C renal, with HCC-2998 colon, in the assay with HOP-92 NSCLC and with NCI-H23 lung was over 100 µM throughout. The GI50 with BT-549 breast, in the assay on COLO 205 colon, in the assay on MCF7 breast and in the assay on M14 melanoma was over 100 µM each time. Besides, the TGI in the assay on ACHN renal, in the assay with SK-OV-3 ovarian, in the assay on SN12C renal, with HCC-2998 colon, in the assay on HOP-92 NSCLC and in the assay with NCI-H23 lung was over 100 µM in each case. Besides, the TGI in the assay on BT-549 breast, in the assay with COLO 205 colon, in the assay on MCF7 breast and in the assay on M14 melanoma was over 100 µM throughout.
Turning to `O=C(Nc1n[nH]c2cc(-c3ccc(F)cc3)ccc12)C1CC1`, the GI50 was 16.8 µM in the assay with ACHN renal; 6.24 µM with SK-OV-3 ovarian; 10.8 µM in the assay with SN12C renal; 8.27 µM in the assay with HCC-2998 colon; 23.3 µM in the assay with HOP-92 NSCLC; 7.18 µM in the assay on NCI-H23 lung. Also, the GI50 is 12.4 µM in the assay on BT-549 breast, 8.12 µM in the assay on COLO 205 colon, 5.54 µM in the assay on MCF7 breast and 8.6 µM in the assay on M14 melanoma. Further, the TGI was over 25 µM with ACHN renal; 20.3 µM in the assay on SK-OV-3 ovarian; over 25 µM in the assay on SN12C renal; over 25 µM with HCC-2998 colon; over 25 µM in the assay on HOP-92 NSCLC; over 25 µM with NCI-H23 lung. For the same compound, the TGI is over 25 µM with BT-549 breast, over 18.8 µM in the assay on COLO 205 colon, over 22.2 µM in the assay with MCF7 breast and over 25 µM in the assay with M14 melanoma.
As to `NS(=O)(=O)c1ccc(NC(=O)Nc2cccc3ccccc23)cc1`, the TGI with ACHN renal, in the assay with SK-OV-3 ovarian, in the assay with SN12C renal, in the assay on HCC-2998 colon, with HOP-92 NSCLC and in the assay with NCI-H23 lung was over 100 µM throughout. In addition, the TGI in the assay on BT-549 breast, with COLO 205 colon, with MCF7 breast and in the assay on M14 melanoma was over 100 µM in each case.
As to `COc1cc(-c2cc(-c3ccc(Nc4nc(Nc5ccc(Cl)cc5)nc(Nc5ccc(Cl)cc5)n4)cc3)no2)cc(OC)c1OC`, the GI50 is 14.9 µM with ACHN renal; over 100 µM in the assay with SK-OV-3 ovarian; 39.1 µM with SN12C renal; 13.1 µM in the assay with HCC-2998 colon; 0.0166 µM in the assay on HOP-92 NSCLC; 18 µM with NCI-H23 lung. Further, the GI50 is 13.9 µM in the assay with BT-549 breast, 2.26 µM with COLO 205 colon, 3 µM in the assay with MCF7 breast and 7.11 µM with M14 melanoma. Also, the TGI with ACHN renal was over 100 µM; in the assay on SK-OV-3 ovarian, over 100 µM; in the assay with SN12C renal it was over 100 µM; in the assay with HCC-2998 colon, 91.3 µM; with HOP-92 NSCLC, 0.32 µM; in the assay with NCI-H23 lung, over 100 µM. Further, the TGI in the assay with BT-549 breast is over 100 µM; in the assay with COLO 205 colon, 21.3 µM; with MCF7 breast, 69.7 µM; in the assay with M14 melanoma, over 100 µM.
`COC1C[C@H](O[C@@H]2C[C@H](O[C@@H]3C[C@H](O[C@@H]4C(=O)c5c(cc6cc(O[C@H]7C[C@@H](O[C@H]8C[C@@H](O)[C@H](O)C(C)O8)[C@H](O)C(C)O7)c(C)c(O)c6c5O)C[C@H]4C(OC)C(=O)[C@@H](O)[C@@H](C)O)OC(C)[C@H]3O)OC(C)[C@@H]2O)OC(C)[C@@H]1O` (stereo not given in full): the GI50 in the assay on ACHN renal was 0.252 µM; in the assay with SK-OV-3 ovarian, 0.105 µM; with SN12C renal, 0.113 µM; in the assay on HCC-2998 colon, 0.0961 µM; with HOP-92 NSCLC, 0.0551 µM; in the assay on NCI-H23 lung, 0.0899 µM. Further, the GI50 was 0.0785 µM in the assay on BT-549 breast, 0.0571 µM in the assay on COLO 205 colon, 0.0493 µM with MCF7 breast and 0.191 µM with M14 melanoma. In addition, the TGI in the assay with ACHN renal is 31.1 µM; with SK-OV-3 ovarian, over 32.5 µM; with SN12C renal, over 32.5 µM; with HCC-2998 colon, 0.615 µM; in the assay with HOP-92 NSCLC, 0.25 µM; in the assay with NCI-H23 lung, 0.695 µM. Further, the TGI is 0.565 µM in the assay on BT-549 breast, 0.147 µM in the assay on COLO 205 colon, over 32.5 µM with MCF7 breast and 2.15 µM in the assay on M14 melanoma.
In the case of `C#Cc1cccc(NC(=O)C2CCCCN2C(=O)CCl)c1` (stereo not given), the GI50 was 13.1 µM with ACHN renal; over 82.5 µM in the assay with SK-OV-3 ovarian; 12.2 µM with SN12C renal; 28.6 µM with HCC-2998 colon; 12.5 µM with HOP-92 NSCLC; 10.7 µM with NCI-H23 lung. The GI50 in the assay with BT-549 breast is 12.5 µM; with COLO 205 colon it was 15.6 µM; with MCF7 breast, 15.8 µM; in the assay on M14 melanoma, 18.8 µM. Besides, the TGI in the assay on ACHN renal is 24.5 µM; in the assay with SK-OV-3 ovarian, over 82.5 µM; with SN12C renal, 28.4 µM; in the assay with HCC-2998 colon, over 82.5 µM; in the assay with HOP-92 NSCLC, 43.3 µM; in the assay with NCI-H23 lung, 28.2 µM. The TGI with BT-549 breast is 27.2 µM; in the assay on COLO 205 colon, 34.7 µM; in the assay with MCF7 breast, over 82.5 µM; in the assay on M14 melanoma, 74.9 µM.
On to `COc1ccc(C2CC(=O)Nc3c2c(C)nn3-c2nc3ccccc3[nH]2)cc1OC` (stereo not given), for which the GI50 was 4.45 µM in the assay on ACHN renal; 2.89 µM in the assay with SK-OV-3 ovarian; 5.96 µM with SN12C renal; 10.9 µM with HCC-2998 colon; 6.01 µM with HOP-92 NSCLC; 3.66 µM in the assay on NCI-H23 lung. The GI50 is 4.19 µM in the assay with BT-549 breast, 9.36 µM in the assay on COLO 205 colon, 3.78 µM in the assay with MCF7 breast and 3.45 µM in the assay on M14 melanoma. Besides, the TGI in the assay with ACHN renal came out at 34.1 µM; in the assay with SK-OV-3 ovarian it was 6.49 µM; with SN12C renal, 35.5 µM; with HCC-2998 colon, 41.2 µM; in the assay with HOP-92 NSCLC, 35.1 µM; with NCI-H23 lung it was 22.1 µM. For the same compound, the TGI in the assay on BT-549 breast was 33.7 µM; in the assay on COLO 205 colon, 40.7 µM; with MCF7 breast, over 100 µM; in the assay with M14 melanoma, 20.4 µM.
